Legend:
SK-RC-52.hFAP tumors = test: Quantitative biodistribution in SK-RC-52.hFAP tumor bearing mice; assay type: in vivo, mouse (female athymic Balb/c AnNRj-Foxn1); settings: i.v. 250 nmol/kg, 50 MBq/kg
In short: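 Female athymic Balb/c nude mice carried subcutaneous SK-RC-52.hFAP tumors (5 million cells, ~300 mm^3). 177Lu-labeled conjugates were given i.v. at 250 nmol/kg, 50 MBq/kg. Tissues gamma-counted at several time points as %ID/g±SD, tumor values corrected for growth rate; tumor-to-organ ratios derived.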

[1] = Tolerability (body weight change) of 177Lu conjugates; assay type: in vivo, mouse (athymic Balb/c AnNRj-Foxn1); settings: single administration, 250 nmol/kg, 250 MBq/kg
Experimental: The anti-cancer efficacy of ^177Lu-ESV6, ^177Lu-Bi-ESV6 and ^177Lu-Tri-ESV6 was assessed in athymic Balb/c AnNRj-Foxn1 mice bearing SK-RC-52.hFAP tumor in the right flank. ^177Lu-ESV6, ^177Lu-Bi-ESV6 or ^177Lu-Tri-ESV6 were intravenously administered at a dose of 250 nmol/kg, 250 MBq/kg (single administration on day 9 after tumor implantation). Therapy experiments started when the average volume of established tumors had reached 100-150 mm^3. Body weight of the animals and tumor volume were daily measured and recorded. Tumor dimensions were measured with an electronic caliper and tumor volume was calculated with the formula (long side, mm)×(short side, mm)×(short side, mm)×0.5. Animals were euthanized when one or more termination criterium indicated by the experimental license was reached. Prism 7 software (GraphPad Software) was used for data analysis.

N#CC1CC(F)(F)CN1C(=O)CNC(=O)c1ccnc2c(NC(=O)CCC(=O)NCCCCC(NC(=O)CCC(=O)Nc3cccc4c(C(=O)NCC(=O)N5CC(F)(F)CC5C#N)ccnc34)C(=O)NCCNC(=O)CCC(C(=O)O)N3CCN(CC(=O)[O-])CCN(CC(=O)[O-])CCN(CC(=O)[O-])CC3)cccc12.[177Lu+3] (stereo not shown) [^177Lu-Bi-ESV6-DOTAGA, reference compound]
Tumor to organs ratio, Blood (SK-RC-52.hFAP tumors; 24 h): 270.81 | Injected dose per gram, Blood (SK-RC-52.hFAP tumors; 24 h post injection): 0.05 % ID/g | Tumor to organs ratio, Blood (SK-RC-52.hFAP tumors; 48 h): 4240.99 | Injected dose per gram, Blood (SK-RC-52.hFAP tumors; 48 h post injection): 0.00 % ID/g | Tumor to organs ratio, Blood (SK-RC-52.hFAP tumors; 72 h): 2515.44 | Injected dose per gram, Blood (SK-RC-52.hFAP tumors; 72 h post injection): 0.00 % ID/g | Tumor to organs ratio, Heart (SK-RC-52.hFAP tumors; 24 h): 342.92 | Injected dose per gram, Heart (SK-RC-52.hFAP tumors; 24 h post injection): 0.05 % ID/g | Tumor to organs ratio, Heart (SK-RC-52.hFAP tumors; 48 h): 1206.24 | Injected dose per gram, Heart (SK-RC-52.hFAP tumors; 48 h post injection): 0.01 % ID/g | Tumor to organs ratio, Heart (SK-RC-52.hFAP tumors; 72 h): 203.58 | Injected dose per gram, Heart (SK-RC-52.hFAP tumors; 72 h post injection): 0.04 % ID/g | Tumor to organs ratio, Intestine (SK-RC-52.hFAP tumors; 24 h): 298.43 | Injected dose per gram, Intestine (SK-RC-52.hFAP tumors; 24 h post injection): 0.05 % ID/g | Tumor to organs ratio, Intestine (SK-RC-52.hFAP tumors; 48 h): 458.76 | Injected dose per gram, Intestine (SK-RC-52.hFAP tumors; 48 h post injection): 0.03 % ID/g | Tumor to organs ratio, Intestine (SK-RC-52.hFAP tumors; 72 h): 544.57 | Injected dose per gram, Intestine (SK-RC-52.hFAP tumors; 72 h post injection): 0.06 % ID/g | Tumor to organs ratio, Kidney (SK-RC-52.hFAP tumors; 24 h): 14.96 | Injected dose per gram, Kidney (SK-RC-52.hFAP tumors; 24 h post injection): 0.96 % ID/g | Tumor to organs ratio, Kidney (SK-RC-52.hFAP tumors; 48 h): 17.41 | Injected dose per gram, Kidney (SK-RC-52.hFAP tumors; 48 h post injection): 0.47 % ID/g | Tumor to organs ratio, Kidney (SK-RC-52.hFAP tumors; 72 h): 12.21 | Injected dose per gram, Kidney (SK-RC-52.hFAP tumors; 72 h post injection): 0.66 % ID/g | Tumor to organs ratio, Liver (SK-RC-52.hFAP tumors; 24 h): 48.81 | Injected dose per gram, Liver (SK-RC-52.hFAP tumors; 24 h post injection): 0.29 % ID/g | Tumor to organs ratio, Liver (SK-RC-52.hFAP tumors; 48 h): 51.30 | Injected dose per gram, Liver (SK-RC-52.hFAP tumors; 48 h post injection): 0.16 % ID/g | Tumor to organs ratio, Liver (SK-RC-52.hFAP tumors; 72 h): 28.14 | Injected dose per gram, Liver (SK-RC-52.hFAP tumors; 72 h post injection): 0.29 % ID/g | Tumor to organs ratio, Lung (SK-RC-52.hFAP tumors; 24 h): 184.57 | Injected dose per gram, Lung (SK-RC-52.hFAP tumors; 24 h post injection): 0.08 % ID/g | Tumor to organs ratio, Lung (SK-RC-52.hFAP tumors; 48 h): 300.13 | Injected dose per gram, Lung (SK-RC-52.hFAP tumors; 48 h post injection): 0.03 % ID/g | Tumor to organs ratio, Lung (SK-RC-52.hFAP tumors; 72 h): 517.13 | Injected dose per gram, Lung (SK-RC-52.hFAP tumors; 72 h post injection): 0.06 % ID/g | Tumor to organs ratio, Muscle (SK-RC-52.hFAP tumors; 24 h): 135.38 | Injected dose per gram, Muscle (SK-RC-52.hFAP tumors; 24 h post injection): 0.12 % ID/g | Tumor to organs ratio, Muscle (SK-RC-52.hFAP tumors; 48 h): 270.58 | Injected dose per gram, Muscle (SK-RC-52.hFAP tumors; 48 h post injection): 0.05 % ID/g | Tumor to organs ratio, Muscle (SK-RC-52.hFAP tumors; 72 h): 140.83 | Injected dose per gram, Muscle (SK-RC-52.hFAP tumors; 72 h post injection): 0.08 % ID/g | Tumor to organs ratio, Spleen (SK-RC-52.hFAP tumors; 24 h): 125.34 | Injected dose per gram, Spleen (SK-RC-52.hFAP tumors; 24 h post injection): 0.11 % ID/g | Tumor to organs ratio, Spleen (SK-RC-52.hFAP tumors; 48 h): 133.66 | Injected dose per gram, Spleen (SK-RC-52.hFAP tumors; 48 h post injection): 0.07 % ID/g | Tumor to organs ratio, Spleen (SK-RC-52.hFAP tumors; 72 h): 61.08 | Injected dose per gram, Spleen (SK-RC-52.hFAP tumors; 72 h post injection): 0.14 % ID/g | Tumor to organs ratio, Tail (SK-RC-52.hFAP tumors; 24 h): 69.69 | Injected dose per gram, Tail (SK-RC-52.hFAP tumors; 24 h post injection): 0.22 % ID/g | Tumor to organs ratio, Tail (SK-RC-52.hFAP tumors; 48 h): 187.42 | Injected dose per gram, Tail (SK-RC-52.hFAP tumors; 48 h post injection): 0.07 % ID/g | Tumor to organs ratio, Tail (SK-RC-52.hFAP tumors; 72 h): 64.13 | Injected dose per gram, Tail (SK-RC-52.hFAP tumors; 72 h post injection): 0.12 % ID/g | Injected dose per gram, Tumor (SK-RC-52.hFAP tumors; 24 h post injection): 14.29 % ID/g | Injected dose per gram, Tumor (SK-RC-52.hFAP tumors; 48 h post injection): 8.10 % ID/g | Injected dose per gram, Tumor (SK-RC-52.hFAP tumors; 72 h post injection): 8.00 % ID/g | tolerability (body weight change), in words [1]: very well tolerated

Source: patent publication US20260364214A1, “MULTIVALENT FIBROBLAST ACTIVATION PROTEIN LIGANDS FOR TARGETED DELIVERY APPLICATIONS” (Philochem AG, priority 2022, published 2026)
